Test results from patent publication EP2246329A1, “4(1H)-pyridinone derivatives and their use as antimalaria agents” (Glaxo Group Limited, priority 2009, dated 2010).
Counter-ions that a name gives are not always drawn.

System: Plasmodium falciparum
Test: In vitro anti-malarial activity against Plasmodium falciparum, IC50 assay / [3H]-Hypoxanthine incorporation assay
Assay type: cell-based
Details: Erythrocyte; Plasmodium falciparum strains in parasitized red blood cells, [3H]-hypoxanthine incorporation, 48 hours at 37°C
Description: The compounds of this invention may be tested in one of several biological assays to determine the concentration of compound which is required to have a given pharmacological effect. In vitro anti-malarial activity against Plasmodium falciparum. IC50 assay / [^3H]-Hypoxanthine assay
The culture medium comprised RPMI 1640 with 25mM HEPES, sodium bicarbonate and glutamine (GIBCO™ cat. ref.: 52400), supplemented with 10% of pooled human sera AB (Irvine Scientific, cat. ref.: 5009) and HT supplement (0.15 mM hypoxanthine and 24 µM thymidine), (GIBCO™ cat. ref.: 41065). Human sera were decomplemented 30 min. at 56°C, aliquoted and stored frozen at -20°C until use in this culture medium.
This culture medium ("complete medium") was usually prepared fresh just before use and pre-warmed to 37°C.
Red blood cells O+ stock suspensions were prepared from whole blood bags coming from incomplete blood donation, provided by the Spanish Red Cross (<25 days after sampling). This "whole blood" was aliquoted and stored at 4°C.
To prepare red blood cells for the assay, the whole blood was centrifuged and washed 3 times with RPMI without serum. The upper phase, containing white blood cells was removed. The washed red blood cells were kept as a 50 % suspension in complete medium. The prepared cells were stored at 4°C and were employed in the assay at any time up to 4 days after preparation.
Test compounds were dissolved at 2 mg/ml in 100% DMSO on the day of the assay. If necessary, complete dissolution was achieved by gentle heating (the mixture was heated at a temperature <37°C) and sonication (sonication bath).
For IC50 determinations, 10 serial 2-fold dilutions were prepared in complete medium in the presence of a constant amount of DMSO. Any obvious signs of insolubility of the stock solutions in 100% DMSO or precipitation when these solutions were diluted in assay media, were recorded.
Plasmodium falciparum strains were maintained in complete medium at an hematocrit of 5% in continuous culture using a method adapted from that published by Trager and Jensen(1) and Traeger(2).
The parasitemia was calculated by counting the percentage of parasitized erythrocytes by optical microscopy. Thin films of blood were made every day from each culture flask, fixed with methanol and stained for 10 min. in Giemsa (Merck, cat. ref.: 1.09204) at 10 % in buffered water pH 7.2. The glass slides were observed and counted with an optical microscope (Nikon, Eclipse E200) equipped with a 100 X immersion oil objective.
The culture was maintained at an hematocrit of 5%, with a daily change of medium and was diluted when parasitemia had reached about 5%.
[^3H] Hypoxanthine incorporation assay was conducted using a method adapted from Desjardins et al. (3). The assays were performed in 96 wells flat bottom microplates. • 1. Serial dilutions of the test compounds (50µl of a 5X solution / well) were deposited in duplicate. Compounds of the invention were tested in this assay. Chloroquine and Atovaquone were used as control compounds for each assay. • 2. […] [^3H]-Hypoxanthine (Amersham Biosciences, cat. ref.: TRK74) was added extemporaneously to the inoculum suspension at a concentration of 1 µCi/ml (equating to […]). 200 µl of the resulting suspension was distributed into each well (other than the control well H12 described below) leading to a final volume of 250 µl per well, at 2% of hematocrit and 0.5 % of parasitemia / well. • 4. […]

SMILES | IC50
Cc1[nH]c(C)c(-c2ccc(C#CCNCc3ccc(OC(F)(F)F)cc3)cc2)c(=O)c1Cl [Example 8, 3-Chloro-2,6-dimethyl-5-(4-{3-[({4-[(trifluoromethyl)oxy]phenyl}methyl)amino]-1-propyn-1-yl}phenyl)-4(1H)-pyridinone] | < 0.125 µg/mL
Cc1[nH]c(C)c(-c2ccc(C#CCN(C)CCc3ccc(OC(F)(F)F)cc3)cc2)c(=O)c1Cl.Cl [Example 17, 3-Chloro-2,6-dimethyl-5-(4-{3-[methyl(2-{4-[(trifluoromethyl)oxy]phenyl}ethyl)amino]-1-propyn-1-yl}phenyl)-4(1H)-pyridinone hydrochloride] | < 0.125 µg/mL
Cc1[nH]c(C)c(-c2ccc(C3=CCN(Cc4ccc(OC(F)(F)F)cc4)CC3)cc2)c(=O)c1Cl.Cl [Example 32, 3-Chloro-2,6-dimethyl-5-{4-[1-({4-[(trifluoromethyl)oxy]phenyl}methyl)-1,2,3,6-tetrahydro-4-pyridinyl]phenyl}-4(1H)-pyridinone hydrochloride] | < 0.125 µg/mL
Cc1[nH]c(C)c(-c2ccc(-c3ccc(CN4CCC(c5ccc(OC(F)(F)F)cc5)CC4)cc3)nc2)c(=O)c1Cl.Cl [Example 64, 5-chloro-2,6-dimethyl-6'-{4-[(4-{4-[(trifluoromethyl)oxy]phenyl}-1-piperidinyl)methyl]phenyl}-3,3'-bipyridin-4(1H)-one hydrochloride] | < 0.125 µg/mL
Cc1[nH]c(C)c(-c2ccc(C#CCN(C)CCC(F)(F)F)cc2)c(=O)c1Cl.Cl [Example 49, 3-Chloro-2,6-dimethyl-5-(4-{3-[methyl(3,3,3-trifluoropropyl)amino]-1-propyn-1-yl}phenyl)-4(1H)-pyridinone hydrochloride] | < 0.125 µg/mL
Cc1[nH]c(C)c(-c2ccc(C(F)(F)CN3CCC(C(F)(F)F)CC3)nc2)c(=O)c1Cl [Example 67, 5-chloro-6'-{1,1-difluoro-2-[4-(trifluoromethyl)-1-piperidinyl]ethyl}-2,6-dimethyl-3,3'-bipyridin-4(1H)-one] | < 0.125 µg/mL
Cc1[nH]c(C)c(-c2ccc(C#CCN(C)Cc3ccc(Cl)cc3Cl)cc2)c(=O)c1Cl.Cl [Example 46, 3-Chloro-5-(4-{3-[[(2,4-dichlorophenyl)methyl](methyl)amino]-1-propyn-1-yl}phenyl)-2 ,6-dimethyl-4(1H)-pyridinone hydrochloride] | < 0.125 µg/mL
CCCN(CC#Cc1ccc(-c2c(C)[nH]c(C)c(Cl)c2=O)cc1)Cc1ccc(OC(F)(F)F)cc1.O=C(O)C(F)(F)F [Example 6, 3-Chloro-2,6-dimethyl-5-(4-{3-[propyl({4-[(trifluoromethyl)oxy]phenyl}methyl)amino]-1-propyn-1-yl}phenyl)-4(1H)-pyridinone trifluoroacetate] | < 0.125 µg/mL
Cc1[nH]c(C)c(-c2ccc(C#CCN(C)Cc3ccco3)cc2)c(=O)c1Cl.Cl [Example 41, 3-Ch loro-5-(4-{3-[(2-furanylmethyl)(methyl)amino]-1-propyn-1-yl}phenyl)-2,6-dimethyl-4(1H)-pyridinone hydrochloride] | < 0.125 µg/mL
Cc1[nH]c(C)c(-c2ccc(C#CCCN(C)Cc3ccc(OC(F)(F)F)cc3)cc2)c(=O)c1Cl.Cl [Example 18, 3-Chloro-2,6-dimethyl-5-(4-{4-[methyl({4-[(trifluoromethyl)oxy]phenyl}methyl)amino]-1-butyn-1-yl}phenyl)-4(1H)-pyridinone hydrochloride] | < 0.125 µg/mL
Cc1[nH]c(C)c(-c2ccc(OCCN3CCC(C(F)(F)F)CC3)nc2)c(=O)c1Cl.Cl [Example 68, 5-chloro-2,6-dimethyl-6'-({2-[4-(trifluoromethyl)-1-piperidinyl]ethyl}oxy)-3,3'-bipyridin-4(1H)-one hydrochloride] | 0.21 µg/mL
Cc1[nH]c(C)c(-c2ccc(C#CCN(C)Cc3ccc(C(F)(F)F)cc3)cc2)c(=O)c1Cl [Example 2, 3-Chloro-2,6-dimethyl-5-{4-[3-(methyl{[4-(trifluoromethyl)phenyl]methyl}amino)-1-propyn-1-yl]phenyl}-4(1H)-pyridinone] | < 0.125 µg/mL
Cc1[nH]c(C)c(-c2ccc(-c3ccc(CN(C)Cc4ccc(OC(F)(F)F)cc4)cc3)cc2)c(=O)c1Cl.Cl [Example 35, 3-Chloro-2,6-dimethyl-5-(4'-{[methyl({4-[(trifluoromethyl)oxy]phenyl}methyl)amino]methyl}-4-biphenylyl)-4(1H)-pyridinone hydrochloride] | < 0.125 µg/mL
Cc1[nH]c(C)c(-c2cccc(C#CCN3CCC(c4ccc(OC(F)(F)F)cc4)CC3)c2)c(=O)c1Cl.O=C(O)C(F)(F)F [Example 30, 3-Chloro-2,6-dimethyl-5-{3-[3-(4-{4-[(trifluoromethyl)oxy]phenyl}-1-piperidinyl)-1-propyn-1-yl]phenyl}-4(1H)-pyridinone trifluoroacetate] | < 0.125 µg/mL
Cc1[nH]c(CO)c(-c2ccc(-c3ccc(CN4CCC(c5ccc(OC(F)(F)F)cc5)CC4)cc3)cc2)c(=O)c1Cl.Cl [Example 62, 3-chloro-6-(hydroxymethyl)-2-methyl-5-{4'-[(4-{4-[(trifluoromethyl)oxy]phenyl}-1-piperidinyl)methyl]-4-biphenylyl}-4(1H)-pyridinone hydrochloride] | < 0.125 µg/mL
CCCN(CC#Cc1ccc(-c2c(C)[nH]c(C)c(Cl)c2=O)cc1)Cc1ccc(OC(F)(F)F)cc1 [Example 20, 3-Chloro-2,6-dimethyl-5-(4-{3-[propyl({4-[(trifluoromethyl)oxy]phenyl}methyl)amino]-1-propyn-1-yl}phenyl)-4(1H)-pyridinone] | < 0.125 µg/mL
Cc1[nH]c(C)c(-c2ccc(-c3ccc(CN4CCC(F)(F)C4)cc3)cc2)c(=O)c1Cl.Cl [Example 60, 3-chloro-5-{4'-[(3,3-difluoro-1-pyrrolidinyl)methyl]-4-biphenylyl}-2,6-dimethyl-4(1H)-pyridinone hydrochloride] | < 0.125 µg/mL
COCCN(CC#Cc1ccc(-c2c(C)[nH]c(C)c(Cl)c2=O)cc1)Cc1ccc(OC(F)(F)F)cc1 [Example 9, 3-Chloro-2,6-dimethyl-5-(4-{3-[[2-(methyloxy)ethyl]({4-[(trifluoromethyl)oxy]phenyl}-methyl)amino]-1-propyn-1-yl}phenyl)-4(1H)-pyridinone] | < 0.125 µg/mL
Cc1[nH]c(CO)c(Cl)c(=O)c1-c1ccc(-c2ccc(CN3CCC(c4ccc(OC(F)(F)F)cc4)CC3)cc2)cc1.Cl [Example 63, 3-chloro-2-(hydroxymethyl)-6-methyl-5-{4'-[(4-{4-[(trifluoromethyl)oxy]phenyl}-1-piperidinyl)methyl]-4-biphenylyl}-4(1H)-pyridinone hydrochloride] | < 0.125 µg/mL
Cc1[nH]c(C)c(-c2ccc(C#CCN3CCC(c4ccccc4)CC3)cc2)c(=O)c1Cl [Example 10, 3-Chloro-2,6-dimethyl-5-{4-[3-(4-phenyl-1-piperidinyl)-1-propyn-1-yl]phenyl}-4(1H)-pyridinone] | < 0.125 µg/mL
Cc1[nH]c(C)c(-c2ccc(C#CCN(C)Cc3ccc(F)cc3)cc2)c(=O)c1Cl [Example 50, 3-Chloro-5-(4-{3-[[(4-fluorophenyl)methyl](methyl)amino]-1-propyn-1-yl}phenyl)-2,6-dimethyl-4(1H)-pyridinone] | < 0.125 µg/mL
Cc1[nH]c(C)c(-c2ccc(C#CCN(C)Cc3ccsc3)cc2)c(=O)c1Cl.Cl [Example 45, 3-Chloro-2,6-dimethyl-5-(4-{3-[methyl(3-thienylmethyl)amino]-1-propyn-1-yl}phenyl)-4(1H)-pyridinone hydrochloride] | < 0.125 µg/mL
Cc1[nH]c(C)c(-c2ccc(C#CCN3CCCCC3c3ccccc3)cc2)c(=O)c1Cl.Cl (stereo not drawn) [Example 13, 3-Chloro-2,6-dimethyl-5-{4-[3-(2-phenyl-1-piperidinyl)-1-propyn-1-yl]phenyl}-4(1H)-pyridinone hydrochloride] | < 0.125 µg/mL

Same assay, conditions: Plasmodium falciparum, Erythrocyte

SMILES | IC50
Cc1[nH]c(C)c(-c2ccc(C#CCN(Cc3ccc(OC(F)(F)F)cc3)CC3CCCC3)cc2)c(=O)c1Cl [Example 38, 3-Chloro-5-(4-{3-[(cyclopentylmethyl)({4-[(trifluoromethyl)oxy]phenyl}methyl)aminol-1-propyn-1-yl}phenyl)-2,6-dimethy)-4(1H)-pyridinone hydrochloride] | < 0.125 µg/mL
